Data taken from patent US12616192B2, “Compositions and methods for preserving or increasing platelet function” (Washington University, priority 2021, dated 2026).
Where two headings read alike, the source gives them in different places.

How the values were obtained:
platelets [1] = settings: cited from earlier work
platelets [2] = settings: in vitro taurine addition; cited from earlier work
platelets [3] = settings: rats fed taurine; cited from earlier work
[4] = system: platelet concentrates (CS-PLT); experiment: occlusive clot formation in a collagen-coated stenotic microfluidic chamber (microfluidic model of occlusion); format: cell-based; settings: for time to occlude the microfluidic channel versus non-supplemented CS-PLT: 500 μM taurine at the beginning of storage
Protocol: Next, the ability of the platelet concentrates to form an occlusive clot against an arterial pressure head in a stenotic microfluidic chamber coated with collagen was analyzed (FIG. 2). The important variable/metric extracted from this platelet function is the occlusion area under the curve, or OAUC; a larger OAUC implies faster and more robust occlusion, and thus improved hemostatic platelet function.
To determine if this was the case, experiments were performed to supplement CS-PLT with taurine during storage, with the hypothesis that the supplemental (or “extra”) taurine would lead to inhibition of aggregation, as similar to the aforementioned reports from the literature. Next, the platelet concentrates were supplemented at the beginning of storage with 500 μM taurine, and assayed for alterations in function using a microfluidic model of occlusion.

Q: Which results are given for NCCS(=O)(=O)O [taurine, 2-aminoethanesulfonic acid]?
A: ex vivo platelet aggregation (platelets [1]; 1989 study, taurine supplementation in humans): reduced aggregation; ex vivo platelet aggregation (platelets [1]; 2010 study, healthy human donors that drank taurine-containing solutions): increased ex vivo aggregation; platelet aggregation (platelets [2]): inhibit platelet aggregation; ex vivo platelet aggregation (platelets [3]): reduced platelet aggregation; platelet aggregation (shift of occlusion curves, OAUC) ([4]; CS-PLT supplemented with 500 μM taurine at the beginning of storage (TaurSTORAGE)): increased platelet aggregation; time to occlude the microfluidic channel versus non-supplemented CS-PLT ([4]; D7 CS-PLT): half of the time; time to occlude the microfluidic channel versus non-supplemented CS-PLT ([4]; D14 CS-PLT): half of the time; occlusion curve phenotype ([4]; D14 non-supplemented CS-PLT, exogenous taurine 500 μM added just prior to assessment (TaurASSAY)): middle phenotype; hemostatic function under physiologically relevant flow ([4]; taurine supplementation during platelet concentrate storage): robustly increases hemostatic function
